Experimental data from PMC3906059, “Activation and Inhibition of TMEM16A Calcium-Activated Chloride Channels” (PLoS ONE, 2014).
Where two headings read alike, the source gives them in different places.

Columns and labels:
TMEM16A (ANO1) [1] = molecular target: T1, TMEM16A (ANO1) (Mus musculus, UniProt Q8BHY3); assay: Activation of ANO1 current by divalent cations, excised inside-out patch with fast solution exchange; type: cell-based
T1 construct: We subcloned the coding region of the cDNA into pEGFP-N3 vector; expressed in transfected cells; host or cells: HEK293 cells
T1 sequence (Q8BHY3 1-956 isoform Q8BHY3-2): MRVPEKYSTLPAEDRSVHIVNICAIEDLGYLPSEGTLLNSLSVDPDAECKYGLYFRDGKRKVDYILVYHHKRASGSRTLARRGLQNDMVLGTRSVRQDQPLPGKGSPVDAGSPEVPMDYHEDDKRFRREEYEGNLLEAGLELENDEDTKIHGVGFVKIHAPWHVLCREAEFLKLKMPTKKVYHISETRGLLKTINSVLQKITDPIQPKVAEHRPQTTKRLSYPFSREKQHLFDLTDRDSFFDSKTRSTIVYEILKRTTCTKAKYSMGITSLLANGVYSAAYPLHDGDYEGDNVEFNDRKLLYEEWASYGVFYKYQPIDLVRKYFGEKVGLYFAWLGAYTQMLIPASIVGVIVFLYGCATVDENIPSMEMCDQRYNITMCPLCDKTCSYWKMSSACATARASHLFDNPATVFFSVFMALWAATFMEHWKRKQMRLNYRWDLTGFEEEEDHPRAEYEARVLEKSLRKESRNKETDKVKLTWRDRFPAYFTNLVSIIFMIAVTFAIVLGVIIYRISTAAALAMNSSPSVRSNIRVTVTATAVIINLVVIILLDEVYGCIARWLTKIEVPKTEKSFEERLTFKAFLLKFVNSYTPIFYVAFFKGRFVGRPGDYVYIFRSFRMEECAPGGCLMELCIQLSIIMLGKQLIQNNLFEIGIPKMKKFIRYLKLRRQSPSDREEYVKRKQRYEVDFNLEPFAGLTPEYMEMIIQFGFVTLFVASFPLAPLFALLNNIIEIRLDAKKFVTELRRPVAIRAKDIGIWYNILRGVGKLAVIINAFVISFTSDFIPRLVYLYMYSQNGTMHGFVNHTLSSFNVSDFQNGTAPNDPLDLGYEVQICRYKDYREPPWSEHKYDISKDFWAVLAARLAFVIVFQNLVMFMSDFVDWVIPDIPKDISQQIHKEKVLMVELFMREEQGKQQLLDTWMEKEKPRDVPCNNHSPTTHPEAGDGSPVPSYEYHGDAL
Description: (§1) The mouse TMEM16A cDNA (NCBI reference sequence: NM_001242349.1) encoding ANO1 CaCC was a generous gift from Dr. Lily Jan. We subcloned the coding region of the cDNA into pEGFP-N3 vector (Clontech Laboratories, Inc.), resulting in a construct in which an enhanced green fluorescent protein (eGFP) was attached to the C-terminus of the ANO1 protein. The sequence was confirmed by commercially-available DNA sequencing service. This eGFP-attached ANO1 cDNA construct was used for channel expression throughout the study. The cDNA was transfected into human embryonic kidney (HEK) 293 cells using lipofectamine transfection methods, [42], [43]. A fluorescent light source and a GFP filter set (Chroma Technology Co.) in the DM IRB inverted microscope (Leica Microsystems) were used to identify transfected cells expressing channel proteins. Electrophysiological experiments were performed ∼24 to 72 hours after transfection.
(§2) All chemicals were reagent grade. Regular salts (such as NaCl, NaOH, CaCl2, SrCl2, BaCl2, MgCl2 or sodium salts of various anions) were purchased from Fisher Chemicals (Fair Lawn, NJ), J. T. Baker (Phillipsburg, NJ) or Sigma Chemicals Co. (St. Louis, MO). EGTA, HEPES, and NFA were from Sigma Chemicals Co. Excised inside-out patch-clamp recordings were performed throughout the study. The extracellular (pipette) solution in all experiments contained: 140 mM NaCl, 10 mM HEPES, 0.1 mM EGTA, pH = 7.4. The regular intracellular solution contained 10 mM HEPES and 140 mM sodium salt of Cl^− or other anions. Various concentrations of divalent cations were made by adding certain total concentrations of divalent cations (Cl^− salts) into the solution containing a defined concentration of EGTA. We defined the pipette solution as the “zero-Ca^2+” solution. A solution containing a saturating [Ca^2+] was made by adding 0.12 mM total [Ca^2+] into the aforementioned zero-Ca^2+ solution, resulting in a solution containing ∼20 µM free [Ca^2+]. For making non-saturating [Ca^2+] solutions, the solutions included 1 mM EGTA. To make solutions containing Sr^2+ and Ba^2+, only 0.1 mM EGTA was used. The pH of all solutions was adjusted to 7.4.
Because of weak Mg^2+-EGTA binding, we referred the total [Mg^2+] as the free [Mg^2+]. The free [Ca^2+], [Sr^2+], and [Ba^2+] were calculated using the MaxChelator program (Ver1.2) kindly provided by Chris Patton from the Stanford University. This program was developed based on the binding constants available in the National Institute of Standard and Technology (NIST) between EGTA and these three divalent cations. Table S1, Table S2, and Table S3 list respectively the calculated free [Ca^2+], [Sr^2+], and [Ba^2+] used in this study. All added divalent cations were Cl^− salts. […] For example, in a solution containing 5 mM, 10 mM or 30 mM MgCl2, only 130 mM, 120 mM or 80 mM of NaCl, respectively, were added to the solution.
The patch-clamp recording pipettes were fabricated from borosilicate glass capillaries (World Precision Instruments) using PP830 electrode puller (Narishige International). When filled with the pipette solution, the electrode resistance was ∼1.5–3 MΩ. The experiments were carried out at room temperature (20–23°C) using the Axopatch 200B amplifier controlled by the Digidata I/O converter and the pClamp9 software (Axon Instruments/Molecular Devices).
Solution exchange was achieved using the SF-77 solution exchanger (Warner Instruments). After the excised inside-out patch mode was established, the tip of the patch pipette was positioned at the exit of the solution-delivery pipes of the SF-77 solution exchanger. The switch of solution pipes was controlled by a digital signal delivered from the Digidata 1320 digitizing board. […]

TMEM16A = settings: cited from earlier work
TMEM16A (ANO1) [2] = molecular target: T1, TMEM16A (ANO1); assay: NFA inhibition of ANO1 current, intracellular application to inside-out patch; type: cell-based
CaCC of Xenopus oocytes = test system: CaCC of Xenopus oocytes; set-up: method as in PMID 11279188; settings: cited from earlier work
TMEM16A (ANO1) [3] = molecular target: T1, TMEM16A (ANO1); assay: NFA inhibition of ANO1 current, intracellular application to inside-out patch; type: cell-based; remark: listed apart in the source
Description: as §1, §2
The inhibition of ANO1 by intracellular NFA was achieved by directly applying NFA to the intracellular side of the membrane patch using fast-solution exchange. Except where indicated, the ANO1 current was induced by saturating [Ca^2+] followed by the application of various [NFA] in the solution containing the same [Ca^2+]. The steady-state current (I) at the end of NFA application was divided by the current in the absence of NFA (I0) before and after the drug application to obtain the percentage of current remained in the presence of NFA.
For dose-response inhibition by NFA, the current (I) measured at the end of the NFA application was normalized to the current amplitude in the absence of NFA (I0). The ratio I/I0 was then plotted against [NFA], and the concentration-dependent inhibition curve was fitted to a Langmuir function (eq. 2), I/I0 = 1/(1+ [NFA]/K1/2), where K1/2 is the half-inhibition [NFA].
For comparing two treatments that might differentially affect the apparent affinity of the NFA inhibition (for example, Fig. 8 C & D), the summation of the residual error (namely, the residual sum of squares of the error) from the curve fitting of each treatment was compared to the residual error from the curve fitting of the pooled data. If the former was statistically smaller than the latter using F test, the two regression curves would be considered different. The statistically significant level (α) was set at 0.05.

[Ca+2] [Ca^2+]
difference of K1/2,Ca between +40 mV and −40 mV (TMEM16A (ANO1) [1]): 100 nM | fraction of saturated current activated (TMEM16A (ANO1) [1]; 666 nM [Ca^2+], ±40 mV, in the presence or absence of 20 µM NFA): ~90% | EC50 (TMEM16A (ANO1) [1]; +40 mV, fit to Hill equation (eq. 1), normalized to Is induced by 20 µM free Ca^2+, read-out: half-activation [Ca^2+] (K1/2,Ca)): 466 nM | maximal ANO1 current activated by saturating divalent cation compared with Is induced by saturating [Ca^2+] (TMEM16A (ANO1) [1]; Is induced by 20 µM Ca^2+, ±40 mV): activated the channel to the same maximal current level | Hill coefficient (n) of dose-response activation curve (TMEM16A (ANO1) [1]; values covering +40 and −40 mV): ~4 | EC50 (TMEM16A (ANO1) [1]; values covering +40 and −40 mV, read-out: K1/2 of ANO1 activation): ~500 nM | EC50 (TMEM16A; +80 mV, read-out: K1/2,Ca): 63 nM | EC50 (TMEM16A; −60 mV, lower end of literature range, read-out: half-effective concentration of Ca^2+ (K1/2,Ca)): < 100 nM | EC50 (TMEM16A; −60 mV, upper end of literature range, read-out: half-effective concentration of Ca^2+ (K1/2,Ca)): > 2000 nM

O=C(O)c1cccnc1Nc1cccc(C(F)(F)F)c1 [NFA, niflumic acid]
IC50 (TMEM16A (ANO1) [2]; symmetrical 4 mM NaCl (136 mM Na-Glutamate added), −40 mV, read-out: K1/2 of NFA inhibition): 7.9 µM | increase of apparent affinity of NFA inhibition in 4 mM [Cl^−] compared with 140 mM [Cl^−] (TMEM16A (ANO1) [2]; symmetrical solutions): more than 2 fold | sideness of the block (CaCC of Xenopus oocytes): from intracellular and extracellular sides with similar affinities | effect of NFA on sensitivity of ANO1 to Ca^2+ activation (TMEM16A (ANO1) [3]; 20 µM NFA, current induced by 666 nM Ca^2+ at ±40 mV): not reduced | IC50 (TMEM16A (ANO1) [3]; 140 mM intracellular NaBr, pipette 140 mM Cl^−, read-out: K1/2 of NFA inhibition): 39.2 ± 1.1 µM | IC50 (TMEM16A (ANO1) [3]; 140 mM intracellular NaCl, pipette 140 mM Cl^−, read-out: K1/2 of NFA inhibition): 17.9 ± 1.1 µM | IC50 (TMEM16A (ANO1) [3]; 140 mM intracellular NaI, pipette 140 mM Cl^−, read-out: K1/2 of NFA inhibition): 85.5 ± 3.6 µM | IC50 (TMEM16A (ANO1) [3]; 140 mM intracellular NaNO3, pipette 140 mM Cl^−, read-out: K1/2 of NFA inhibition): 54.8 ± 3.4 µM | IC50 (TMEM16A (ANO1) [3]; 140 mM intracellular NaSCN, pipette 140 mM Cl^−, read-out: K1/2 of NFA inhibition): 189 ± 7.4 µM | voltage dependence of K1/2 of NFA inhibition (TMEM16A (ANO1) [3]; between −40 mV and +40 mV): not voltage dependent | IC50 (TMEM16A (ANO1) [3]; current activated by 404 µM [Ba^2+], Vm = −20 mV, read-out: K1/2 of NFA inhibition): 22.6 µM | IC50 (TMEM16A (ANO1) [3]; current induced by 20 µM Ca^2+, −40, −20, +20, +40 mV, read-out: half-blocking concentration (K1/2) of NFA): 18 to 20 µM | IC50 (TMEM16A (ANO1) [3]; symmetrical 140 mM NaCl, −40 mV, read-out: K1/2 of NFA inhibition): 18.4 µM
